Assay results reported in patent US20150291625A1 (PFIZER INC., priority 2012, published 2015).
“And” between values parts separate entries of the source, which are not always exact repeats. Equal entries are not always repeated. Structures can show the parent of a compound that is named as a salt. Where two headings read alike, the source gives them in different places.

Columns and labels:
D1 [1] = target: T1, D1 (Homo sapiens, UniProt P21728); assay: D1 cAMP HTRF assay (HEK293T/hD1#1 stable cell line); type: cell-based; set-up: expressed in transfected cells
Text: This assay was used to determine the ability of a test compound to agonize (including partially agonize) D1. A Mab anti-cAMP labeled Cryptate visualizes the tracer. […] The signal, therefore, is inversely proportional to the concentration of cAMP in the sample.
The cAMP Dynamic kit was obtained from Cisbio International (Cisbio 62AM4PEJ). Multidrop Combi (Thermo Scientific) was used for assay additions. Envision (PerkinElmer) reader was used to read HTRF.
A HEK293T/hD1#1 stable cell line was constructed internally (Pfizer Ann Arbor). […] One mL aliquots of the cells were made in Cryo-vials and frozen at −80° C. for future use in the D1 HTRF assay.
Frozen cells were quickly thawed, re-suspended in 50 mL warm media and allowed to sit for 5 min prior to centrifugation (1000 rpm) at room temperature. Media was removed and cell pellet was re-suspended in PBS/0.5 μM IBMX generating 2e5 cells/mL. […] Cells and compounds were incubated at room temperature for 30 min. Working solutions of cAMP-D2 and anti-cAMP-cryptate were prepared according to Cisbio instructions. Using Multidrop, 5 μL cAMP-D2 working solution was added to the assay plate containing the test compound and cells. Using Multidrop, 5 μL anti-cAMP-cryptate working solutions was added to assay plate containing test compound, cells and cAMP-D2. Assay plate was incubated for 1 hour at room temperature. Assay plate was read on Envision plate reader using Cisbio recommended settings. A cAMP standard curve was generated using cAMP stock solution provided in the Cisbio kit.
Data analysis was done using computer software. Percent effects were calculated from the compound controls. Ratio EC50 was determined using the raw ratio data from the Envision reader. The cAMP standard curve was used in an analysis program to determine cAMP concentrations from raw ratio data. cAMP EC50 was determined using the calculated cAMP data.

D1 [2] = target: T1, D1; assay: Human D1 receptor binding assay ([3H]-SCH23390 competition)
[3] = Human D1 Receptor Binding, Ki (nM), Geometric mean of 2-4 determinations, a: >=5 determinations, d: single determination
[4] = read-out: Human D1 Receptor Binding, Ki (nM), Geometric mean of 2-4 determinations, a: >=5 determinations, d: single determination

T1 sequence (P21728 whole entry): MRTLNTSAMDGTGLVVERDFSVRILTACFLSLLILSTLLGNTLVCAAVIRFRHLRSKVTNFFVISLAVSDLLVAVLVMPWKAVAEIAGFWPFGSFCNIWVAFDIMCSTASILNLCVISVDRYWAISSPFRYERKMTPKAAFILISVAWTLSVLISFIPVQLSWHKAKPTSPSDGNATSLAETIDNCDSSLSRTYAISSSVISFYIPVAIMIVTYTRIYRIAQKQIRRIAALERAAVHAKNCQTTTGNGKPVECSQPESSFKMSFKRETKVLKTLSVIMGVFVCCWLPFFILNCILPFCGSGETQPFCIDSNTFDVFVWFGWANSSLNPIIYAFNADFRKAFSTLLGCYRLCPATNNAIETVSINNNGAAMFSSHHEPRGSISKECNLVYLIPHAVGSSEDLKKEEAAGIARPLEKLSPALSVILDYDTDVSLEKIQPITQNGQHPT

SMILES	EC50 (D1 [1])	Ki (D1 [2]; [3]) [nM]	Ki (D1 [2]; [4]) [nM]
Cc1cc(Oc2nccc3occc23)ccc1-c1c(C)cnnc1Cl [Example 11, 4-[4-(3-Chloro-5-methylpyridazin-4yl)-3-methylphenoxy]furo[3,2-c]pyridine]	186 nM	11.8	
Cc1cc(Oc2nccc3occc23)ccc1-c1c(C)cnnc1C [Example 12, 4-[4-(3,5-Dimethylpyridazin-4-yl)-3-methylphenoxy]furo[3,2-c]pyridine]	166 nM and 395 nM	14.3	
Cc1cc(Oc2nccc3occc23)ccc1-c1c(C)cnn1C(C)(C)C [Example 15, 4-[4-(1-tert-Butyl-4-methyl-1H-pyrazol-5yl)-3-methylphenoxy]furo[3,2-c]pyridine]	895 nM		121
Nc1cc(Oc2nccc3occc23)ccc1-c1cccc2nccn12 [Example 16, 5-(Furo[3,2-c]pyridin-4-yloxy)-2-(imidazo[1,2-a]pyridin-5-yl)aniline]	415 nM	146	
Cc1cc(Nc2nccc3occc23)ccc1-c1cccc2nccn12 [Example 17, N-[4-(Imidazo[1,2-a]pyridin-5-yl)-3-methylphenyl]furo[3,2-c]pyridin-4-amine]	957 nM	111	
Cc1cc(Oc2nccc3occc23)ccc1-c1c(C)ncnc1Cl [Example 18, 4-[4-(4-chloro-6-methylpyrimidin-5-yl)-3-methylphenoxy]furo[3,2-c]pyridine]	118 nM and 511 nM	15.6	
Cc1cc(Oc2nccc3occc23)ccc1-c1c(C)nc(O)c2nccn12 [Example 19, 5-[4-(Furo[3,2-c]pyridin-4-yloxy)-2-methylphenyl]-6-methylimidazo[1,2-a]pyrazin-8-ol]	246 nM and 426 nM	24.7	
Cc1ncnc(C)c1-c1ccc(Oc2nccc3occc23)cc1CO [Example 20, [2-(4,6-Dimethylpyrimidin-5-yl)-5-(furo[3,2-c]pyridin-4-yloxy)phenyl]methanol]	622 nM	138	
CCOc1ncnc(C)c1-c1ccc(Oc2nccc3occc23)cc1C [Example 24, 4-[4-(4-Ethoxy-6-methylpyrimidin-5-yl)-3-methylphenoxy]furo[3,2-c]pyridine]	2060 nM and 2590 nM	33	
Cc1cnccc1-c1c(C)cc(Oc2nccc3occc23)cc1C [Example 29, 4-[3,5-Dimethyl-4-(3-methylpyridin-4-yl)phenoxy]furo[3,2-c]pyridine]	2820 nM	329	
c1ccc2c(-c3cccc4nccn34)ccc(Oc3nccc4occc34)c2c1 [Example 30, 4-{[4-(Imidazo[1,2-a]pyridin-5-yl)naphthalen-1-yl]oxy}furo[3,2-c]pyridine, trifluoroacetate salt]	2480 nM	220	
Cc1nc2cnccc2n1-c1ccc(Oc2nccc3occc23)cc1 [Example 31, 1-[4-(furo[3,2-c]pyridin-4-yloxy)phenyl]-2-methyl-1H-imidazo[4,5-c]pyridine]	1030 nM and 1190 nM	316	
COc1ccc2cnccc2c1-c1ccc(Oc2nccc3occc23)cc1 [Example 33, 5-[4-(furo[3,2-c]pyridin-4-yloxy)phenyl]-6-methoxyisoquinoline]	2270 nM	111	
Cc1cc(Oc2nccc3occc23)ccc1-c1c(C)ccc2nccn12 [Example 35, 4-[3-methyl-4-(6-methylimidazo[1,2-a]pyridin-5-yl)phenoxy]furo[3,2-c]pyridine]	63.6 nM		6.86
Cc1cc(Oc2nccc3occc23)ccc1-c1cncc2nccn12 [Example 36, 5-[4-(furo[3,2-c]pyridin-4-yloxy)-2-methylphenyl]imidazo[1,2-a]pyrazine]	378 nM and 412 nM	120	
CNc1cc(Oc2nccc3occc23)ccc1-c1cccc2nccn12 [Example 38, 5-(furo[3,2-c]pyridin-4-yloxy)-2-(imidazo[1,2-a]pyridin-5-yl)-N-methylaniline]	200 nM	36	
Cc1nc2cnccc2n1-c1ccc(Oc2nccc3occc23)cc1Cl [Example 39, 1-[2-chloro-4-(furo[3,2-c]pyridin-4-yloxy)phenyl]-2-methyl-1H-imidazo[4,5-c]pyridine]	415 nM	91	
c1cc(-c2ccc(Oc3nccc4occc34)cc2OCc2cscn2)n2ccnc2c1 [Example 40, 4-[4-(imidazo[1,2-a]pyridin-5-yl)-3-(1,3-thiazol-4-ylmethoxy)phenoxy]furo[3,2-c]pyridine, trifluoroacetate salt]	1270 nM	107	
OCCOc1cc(Oc2nccc3occc23)ccc1-c1cccc2nccn12 [Example 42, 2-[5-(furo[3,2-c]pyridin-4-yloxy)-2-(imidazo[1,2-a]pyridin-5-yl)phenoxy]ethanol, trifluoroacetate salt]	406 nM	118	
COC(=O)COc1cc(Oc2nccc3occc23)ccc1-c1cccc2nccn12 [Example 44, methyl [5-(furo[3,2-c]pyridin-4-yloxy)-2-(imidazo[1,2-a]pyridin-5-yl)phenoxy]acetate, trifluoroacetate salt]	651 nM	129	
O=C(NC1CCC1)c1cc(Oc2nccc3occc23)ccc1-c1cccc2nccn12 [Example 46, N-cyclobutyl-5-(furo[3,2-c]pyridin-4-yloxy)-2-(imidazo[1,2-a]pyridin-5-yl)benzamide, trifluoroacetate salt]	2120 nM	316	

Second part, the molecule after the results:

EC50 (D1 [1])	Ki (D1 [2]; [3]) [nM]	Ki (D1 [2]; [4]) [nM]	SMILES
85.8 nM	36.2		Cc1ncnc(C)c1-c1ccc(Oc2nccc3occc23)cc1CF [Example 21, 4-[4-(4,6-Dimethylpyrimidin-5-yl)-3-(fluoromethyl)phenoxy]furo[3,2-c]pyridine]
774 nM and 1340 nM	162		Cc1cc(Oc2nccc3occ(C)c23)ccc1-c1c(C)ncnc1C [Example 22, 4-[4-(4,6-Dimethylpyrimidin-5-yl)-3-methylphenoxy]-3-methylfuro[3,2-c]pyridine]
848 nM	30.6		Cc1ncnc(C)c1-c1ccc(Oc2nccc3occc23)c2[nH]ccc12 [Example 23, 4-{[4-(4,6-Dimethylpyrimidin-5-yl)-1H-indol-7-yl]oxy}furo[3,2-c]pyridine]
110 nM	19.3		Cc1n[nH]c(=O)c(C)c1-c1ccc(Oc2nccc3occc23)cc1 [Example 28, 5-[4-(Furo[3,2-c]pyridin-4-yloxy)phenyl]-4,6-dimethylpyridazin-3(2H)-one]
2240 nM	281		Cc1cnn(C2CC2)c1-c1ccc(Oc2nccc3occc23)cc1 [Example 32, 4-[4-(1-cyclopropyl-4-methyl-1H-pyrazol-5-yl)phenoxy]furo[3,2-c]pyridine, trifluoroacetate salt]
182 nM	20		COc1cc(Oc2nccc3occc23)ccc1-c1cccc2nccn12 [Example 34, 4-[4-(imidazo[1,2-a]pyridin-5-yl)-3-methoxyphenoxy]furo[3,2-c]pyridine]
46.9 nM	3.54		COc1cc(Oc2nccc3occc23)ccc1-c1c(C)ccc2nccn12 [Example 37, 4-[3-methoxy-4-(6-methylimidazo[1,2-a]pyridin-5-yl)phenoxy]furo[3,2-c]pyridine]
517 nM	72.1		CCC(=O)COc1cc(Oc2nccc3occc23)ccc1-c1cccc2nccn12 [Example 41, 1-[5-(furo[3,2-c]pyridin-4-yloxy)-2-(imidazo[1,2-a]pyridin-5-yl)phenoxy]butan-2-one, trifluoroacetate salt]
605 nM	211		O=C(COc1cc(Oc2nccc3occc23)ccc1-c1cccc2nccn12)NC1CC1 [Example 43, N-cyclopropyl-2-[5-(furo[3,2-c]pyridin-4-yloxy)-2-(imidazo[1,2-a]pyridin-5-yl)phenoxy]acetamide, trifluoroacetate salt]
1140 nM	182		Cc1cc(Oc2nccc3occc23)ccc1-c1c(C)cnc2ncnn12 [Example 45, 7-[4-(furo[3,2-c]pyridin-4-yloxy)-2-methylphenyl]-6-methyl[1,2,4]triazolo[1,5-a]pyrimidine]
935 nM	302		CCOCC(=O)Nc1cc(Oc2nccc3occc23)ccc1-c1cccc2nccn12 [Example 47, 2-ethoxy-N-[5-(furo[3,2-c]pyridin-4-yloxy)-2-(imidazo[1,2-a]pyridin-5-yl)phenyl]acetamide]
2070 nM	68.8		Cn1cncc1CNc1cc(Oc2nccc3occc23)ccc1-c1cccc2nccn12 [Example 48, 5-(furo[3,2-c]pyridin-4-yloxy)-2-(imidazo[1,2-a]pyridin-5-yl)-N-[(1-methyl-1H-imidazol-5-yl)methyl]aniline, trifluoroacetate salt]
